Source: ChEMBL document CHEMBL1201862, “PubChem BioAssay data set” (2004)
Each block holds one compound with its values, some of them ahead of it. Activity calls are given as the source filed them.

Tests used:
cells [1] = assay type: functional, cell-based
[2] = target: T1, Trace amine-associated receptor 1 (Homo sapiens, UniProt Q96RJ0); assay: Fluorescence-based cell-based high throughput dose response assay to identify agonists of the human trace amine associated receptor 1 (TAAR1).; assay type: functional
T1 sequence (Q96RJ0 whole entry): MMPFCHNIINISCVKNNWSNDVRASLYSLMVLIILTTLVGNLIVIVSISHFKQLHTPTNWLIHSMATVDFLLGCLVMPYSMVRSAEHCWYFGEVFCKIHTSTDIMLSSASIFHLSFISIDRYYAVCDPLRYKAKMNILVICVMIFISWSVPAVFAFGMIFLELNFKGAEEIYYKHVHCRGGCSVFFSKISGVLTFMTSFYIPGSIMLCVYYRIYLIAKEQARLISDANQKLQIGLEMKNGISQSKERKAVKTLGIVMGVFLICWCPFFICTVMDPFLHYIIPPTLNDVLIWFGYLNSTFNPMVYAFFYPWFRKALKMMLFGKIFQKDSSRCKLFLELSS

[3] = target: T2, High affinity choline transporter 1 (Homo sapiens, UniProt Q9GZV3); assay: human choline transporter potentiators, potency – cell-based, 10-point CRC, membrane potential dye, dose response (AID 602376); assay type: functional
T2 sequence (Q9GZV3 whole entry): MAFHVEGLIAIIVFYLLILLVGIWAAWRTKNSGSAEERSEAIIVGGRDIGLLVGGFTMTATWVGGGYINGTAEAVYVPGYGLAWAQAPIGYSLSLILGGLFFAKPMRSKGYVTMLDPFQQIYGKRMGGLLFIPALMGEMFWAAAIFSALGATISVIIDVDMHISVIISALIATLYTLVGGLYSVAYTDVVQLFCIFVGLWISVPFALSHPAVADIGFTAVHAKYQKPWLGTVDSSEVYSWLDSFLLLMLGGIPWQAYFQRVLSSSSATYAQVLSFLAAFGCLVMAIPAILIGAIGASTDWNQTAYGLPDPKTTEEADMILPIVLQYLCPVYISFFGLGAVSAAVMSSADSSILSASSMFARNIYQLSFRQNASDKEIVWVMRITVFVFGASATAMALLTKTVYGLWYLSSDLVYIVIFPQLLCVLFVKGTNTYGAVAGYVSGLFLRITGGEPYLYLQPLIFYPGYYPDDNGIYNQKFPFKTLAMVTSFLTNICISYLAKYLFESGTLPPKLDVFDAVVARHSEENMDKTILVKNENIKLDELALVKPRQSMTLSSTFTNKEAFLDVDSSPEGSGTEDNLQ

cells [4] = assay type: functional, cell-based; remark: listed apart in the source
[5] = target: T1, Trace amine-associated receptor 1; assay: Counterscreen for agonists of the human trace amine associated receptor 1 (hTAAR1): Fluorescence-based cell-based high throughput dose response assay to identify hTAAR1 agonist that also desensitize TAAR1 receptor response.; assay type: functional
[6] = target: Casein kinase I isoform alpha (Homo sapiens, UniProt P48729); assay type: functional
[7] = target: Mitogen-activated protein kinase kinase kinase kinase 2 (Homo sapiens, UniProt Q12851); assay type: functional;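 also: measured as one member of a kinome-wide kinase panel, with MAP4K2 as the panel entry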
[8] = target: Inhibitor of nuclear factor kappa-B kinase subunit epsilon (Homo sapiens, UniProt Q14164); assay: Navigating the Kinome. Panel member name: IKBKE; assay type: functional
[9] = target: Leucine-rich repeat serine/threonine-protein kinase 2 (Homo sapiens, UniProt Q5S007); assay type: functional;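 also: value from a broad kinome-wide panel profiling study in which LRRK2 was one of the kinases tested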
[10] = target: Serine/threonine-protein kinase D3 (Homo sapiens, UniProt O94806); assay type: functional;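 also: determined within a kinase panel screen, with PRKCN as the panel member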
[11] = target: Ribosomal protein S6 kinase alpha-3 (Homo sapiens, UniProt P51812); assay type: functional;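 also: measured within a kinome-wide profiling panel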
[12] = target: Tyrosine-protein kinase receptor TYRO3 (Homo sapiens, UniProt Q06418); assay type: functional;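 also: TYRO3 value obtained as one member of a kinome-wide profiling panel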
Aurora kinase A = Aurora kinase A (Homo sapiens, UniProt O14965); assay type: functional;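 also: value from the Navigating the Kinome kinase panel profiling, panel entry STK6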
[13] = target: Dual specificity tyrosine-phosphorylation-regulated kinase 1B (Homo sapiens, UniProt Q9Y463); assay: Navigating the Kinome. Panel member name: DYRK1B; assay type: functional
[14] = target: Leukocyte tyrosine kinase receptor (Homo sapiens, UniProt P29376); assay: Navigating the Kinome. Panel member name: LTK; assay type: functional
Activin receptor type-1 = Activin receptor type-1 (Homo sapiens, UniProt Q04771); assay: Navigating the Kinome. Panel member name: ACVR1; assay type: functional
[15] = target: Serine/threonine-protein kinase PAK 4 (Homo sapiens, UniProt O96013); assay type: functional;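 also: value obtained within a kinome profiling panel in which PAK4 was one of the panel members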
[16] = target: Vascular endothelial growth factor receptor 2 (Homo sapiens, UniProt P35968); assay type: functional
[17] = target: Rho-associated protein kinase 1 (Homo sapiens, UniProt Q13464); assay type: functional;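 also: measured within a broad kinome-wide panel profiling many kinases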
[18] = target: Platelet-derived growth factor receptor beta (Homo sapiens, UniProt P09619); assay type: functional;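 also: value comes from a kinome panel, with PDGFRB tested as one panel member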
[19] = target: cAMP-dependent protein kinase catalytic subunit alpha (Homo sapiens, UniProt P17612); assay type: functional
Activated CDC42 kinase 1 = Activated CDC42 kinase 1 (Homo sapiens, UniProt Q07912); assay: Navigating the Kinome. Panel member name: ACK1; assay type: functional
Focal adhesion kinase 1 = Focal adhesion kinase 1 (Homo sapiens, UniProt Q05397); assay type: functional;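 also: measured as one member of a kinome panel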
[20] = target: Protein kinase C theta type (Homo sapiens, UniProt Q04759); assay: Navigating the Kinome. Panel member name: PRKCQ; assay type: functional
[21] = target: Tyrosine-protein kinase JAK2 (Homo sapiens, UniProt O60674); assay type: functional;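 also: JAK2 tested as one member of a kinase panel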
[22] = target: Fibroblast growth factor receptor 1 (Homo sapiens, UniProt P11362); assay type: functional
[23] = target: Dual specificity mitogen-activated protein kinase kinase 2 (Homo sapiens, UniProt P36507); assay: Navigating the Kinome. Panel member name: MAP2K2; assay type: functional
[24] = target: 5'-AMP-activated protein kinase catalytic subunit alpha-1 (Homo sapiens, UniProt Q13131); assay type: functional
[25] = target: Death-associated protein kinase 3 (Homo sapiens, UniProt O43293); assay type: functional;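 also: measured as one member of a kinome-wide profiling panel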
[26] = target: Mitogen-activated protein kinase 9 (Homo sapiens, UniProt P45984); assay type: functional;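 also: value from a kinome panel profiling assay, MAPK9 panel entry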
[27] = target: Tyrosine-protein kinase ABL1 (Homo sapiens, UniProt P00519); assay type: functional
[28] = target: Dual specificity protein kinase CLK2 (Homo sapiens, UniProt P49760); assay type: functional
Aurora kinase B = Aurora kinase B (Homo sapiens, UniProt Q96GD4); assay type: functional
[29] = target: Cyclin-dependent kinase 9 (Homo sapiens, UniProt P50750); assay type: functional;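 also: value from the CDK9 entry of a kinome-spanning kinase panel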
[30] = target: Glycogen synthase kinase-3 beta (Homo sapiens, UniProt P49841); assay type: functional;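 also: value comes from a broad kinome profiling panel, with GSK3B as the panel member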
[31] = target: Macrophage colony-stimulating factor 1 receptor (Homo sapiens, UniProt P07333); assay type: functional;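 also: value comes from the Navigating the Kinome screening panel, CSF1R member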
[32] = target: Vascular endothelial growth factor receptor 1 (Homo sapiens, UniProt P17948); assay type: functional;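 also: measured within a kinome-wide profiling panel, FLT1 as the panel member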
[33] = target: Mitogen-activated protein kinase kinase kinase kinase 4 (Homo sapiens, UniProt O95819); assay type: functional
[34] = target: Tyrosine-protein kinase BTK (Homo sapiens, UniProt Q06187); assay type: functional
[35] = target: Serine/threonine-protein kinase TBK1 (Homo sapiens, UniProt Q9UHD2); assay: Navigating the Kinome. Panel member name: TBK1; assay type: functional
[36] = target: Macrophage-stimulating protein receptor (Homo sapiens, UniProt Q04912); assay: Navigating the Kinome. Panel member name: MST1R; assay type: functional
[37] = target: Dual specificity protein kinase CLK4 (Homo sapiens, UniProt Q9HAZ1); assay type: functional
[38] = target: Cyclin-dependent kinase 8 (Homo sapiens, UniProt P49336); assay: Navigating the Kinome. Panel member name: CDK8; assay type: functional
[39] = target: Dual specificity mitogen-activated protein kinase kinase 1 (Homo sapiens, UniProt Q02750); assay: Navigating the Kinome. Panel member name: MAP2K1; assay type: functional
[40] = target: Cyclin-dependent kinase 7 (Homo sapiens, UniProt P50613); assay type: functional;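 also: value comes from a kinome-wide kinase profiling panel in which CDK7 is one member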
[41] = target: Cyclin-dependent kinase 5 (Homo sapiens, UniProt Q00535); assay type: functional;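 also: CDK5 measured as one member of a kinase profiling panel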
[42] = target: Dual specificity tyrosine-phosphorylation-regulated kinase 1A (Homo sapiens, UniProt Q13627); assay type: functional;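 also: measured against DYRK1A as one member of a broad kinome profiling panel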
[43] = target: Mitogen-activated protein kinase 8 (Homo sapiens, UniProt P45983); assay type: functional;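 also: value comes from one member of a kinome-wide kinase profiling panel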
[44] = target: ALK tyrosine kinase receptor (Homo sapiens, UniProt Q9UM73); assay type: functional;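 also: ALK tested as one member of a kinase panel screen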
[45] = target: Tyrosine-protein kinase JAK3 (Homo sapiens, UniProt P52333); assay type: functional
[46] = target: Glycogen synthase kinase-3 alpha (Homo sapiens, UniProt P49840); assay type: functional;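 also: GSK3A result taken from a broad kinome-wide kinase panel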
[47] = target: Sphingosine 1-phosphate receptor 2 (Homo sapiens, UniProt O95136); assay: Late-stage fluorescence-based dose-response cell-based counterscreen assay to identify agonists of the Sphingosine 1-Phosphate Receptor 3 (S1P3): Sphingosine 1-Phosphate Receptor 2 (S1P2) agonist assay.; assay type: functional
[48] = target: Sphingosine 1-phosphate receptor 4 (Homo sapiens, UniProt O95977); assay: Late-stage fluorescence-based dose-response cell-based counterscreen assay to identify agonists of the Sphingosine 1-Phosphate Receptor 3 (S1P3): Sphingosine 1-Phosphate Receptor 4 (S1P4) agonist assay.; assay type: functional

Sequence of Activated CDC42 kinase 1 (Q07912 whole entry): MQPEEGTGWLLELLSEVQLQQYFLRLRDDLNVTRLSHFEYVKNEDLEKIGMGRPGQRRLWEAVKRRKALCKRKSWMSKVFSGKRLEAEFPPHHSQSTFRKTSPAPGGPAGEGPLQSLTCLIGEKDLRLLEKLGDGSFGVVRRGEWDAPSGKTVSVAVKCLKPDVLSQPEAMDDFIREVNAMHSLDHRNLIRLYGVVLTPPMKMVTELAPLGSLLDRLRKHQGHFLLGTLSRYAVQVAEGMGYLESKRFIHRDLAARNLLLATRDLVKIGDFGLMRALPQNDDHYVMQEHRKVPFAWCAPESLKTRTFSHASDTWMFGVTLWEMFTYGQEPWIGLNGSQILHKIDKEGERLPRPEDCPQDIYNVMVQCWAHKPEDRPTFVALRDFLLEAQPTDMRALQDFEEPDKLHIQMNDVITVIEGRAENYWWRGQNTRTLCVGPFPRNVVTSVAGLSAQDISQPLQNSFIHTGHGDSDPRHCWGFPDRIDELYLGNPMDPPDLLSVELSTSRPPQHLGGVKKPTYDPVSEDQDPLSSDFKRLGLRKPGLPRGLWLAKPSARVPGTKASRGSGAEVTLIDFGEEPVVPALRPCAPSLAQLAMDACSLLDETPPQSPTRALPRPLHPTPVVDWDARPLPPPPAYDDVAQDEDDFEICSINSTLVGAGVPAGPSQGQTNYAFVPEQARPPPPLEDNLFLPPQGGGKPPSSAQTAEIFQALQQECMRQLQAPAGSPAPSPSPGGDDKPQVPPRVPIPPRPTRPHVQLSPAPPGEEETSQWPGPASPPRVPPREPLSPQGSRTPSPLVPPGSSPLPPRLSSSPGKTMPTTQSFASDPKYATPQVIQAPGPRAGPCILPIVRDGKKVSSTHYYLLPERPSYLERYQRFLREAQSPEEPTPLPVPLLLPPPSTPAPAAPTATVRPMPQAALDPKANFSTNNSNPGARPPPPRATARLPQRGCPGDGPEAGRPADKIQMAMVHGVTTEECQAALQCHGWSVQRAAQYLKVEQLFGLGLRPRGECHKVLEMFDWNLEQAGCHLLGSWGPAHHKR
Sequence of Vascular endothelial growth factor receptor 2 (P35968 whole entry): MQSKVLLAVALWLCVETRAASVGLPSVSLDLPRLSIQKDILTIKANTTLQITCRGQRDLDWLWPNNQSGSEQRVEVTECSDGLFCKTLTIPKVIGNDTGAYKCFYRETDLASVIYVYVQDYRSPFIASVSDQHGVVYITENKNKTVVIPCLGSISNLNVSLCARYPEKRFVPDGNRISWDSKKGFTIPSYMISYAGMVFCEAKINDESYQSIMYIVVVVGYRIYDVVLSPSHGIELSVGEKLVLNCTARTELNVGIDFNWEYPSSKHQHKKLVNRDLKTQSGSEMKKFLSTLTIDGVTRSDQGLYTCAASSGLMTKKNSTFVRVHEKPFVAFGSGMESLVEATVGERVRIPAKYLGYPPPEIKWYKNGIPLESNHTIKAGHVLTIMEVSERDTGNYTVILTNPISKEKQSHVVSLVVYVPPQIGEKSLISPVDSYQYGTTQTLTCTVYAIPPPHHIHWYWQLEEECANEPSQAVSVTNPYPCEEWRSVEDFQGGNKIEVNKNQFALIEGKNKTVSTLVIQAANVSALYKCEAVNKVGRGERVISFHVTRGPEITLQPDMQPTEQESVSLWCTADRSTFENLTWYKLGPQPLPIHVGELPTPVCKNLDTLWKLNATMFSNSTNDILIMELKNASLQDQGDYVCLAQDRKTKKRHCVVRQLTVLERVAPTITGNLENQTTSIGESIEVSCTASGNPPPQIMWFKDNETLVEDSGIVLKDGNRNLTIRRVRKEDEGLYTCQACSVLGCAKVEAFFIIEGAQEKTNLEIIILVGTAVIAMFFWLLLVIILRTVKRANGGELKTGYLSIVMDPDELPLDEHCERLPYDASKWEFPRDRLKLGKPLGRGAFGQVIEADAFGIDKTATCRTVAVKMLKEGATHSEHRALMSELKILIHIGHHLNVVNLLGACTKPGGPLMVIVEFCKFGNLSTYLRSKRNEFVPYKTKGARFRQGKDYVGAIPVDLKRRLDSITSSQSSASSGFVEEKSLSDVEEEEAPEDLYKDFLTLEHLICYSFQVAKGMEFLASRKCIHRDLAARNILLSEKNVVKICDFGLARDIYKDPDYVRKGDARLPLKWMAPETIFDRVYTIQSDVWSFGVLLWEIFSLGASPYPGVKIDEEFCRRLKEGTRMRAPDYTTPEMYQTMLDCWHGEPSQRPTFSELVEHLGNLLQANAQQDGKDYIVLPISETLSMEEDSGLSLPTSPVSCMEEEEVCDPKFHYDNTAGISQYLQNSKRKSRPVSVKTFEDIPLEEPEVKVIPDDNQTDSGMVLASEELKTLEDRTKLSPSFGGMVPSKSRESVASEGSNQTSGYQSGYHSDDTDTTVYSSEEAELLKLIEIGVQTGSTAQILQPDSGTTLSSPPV
Sequence of Focal adhesion kinase 1 (Q05397 whole entry): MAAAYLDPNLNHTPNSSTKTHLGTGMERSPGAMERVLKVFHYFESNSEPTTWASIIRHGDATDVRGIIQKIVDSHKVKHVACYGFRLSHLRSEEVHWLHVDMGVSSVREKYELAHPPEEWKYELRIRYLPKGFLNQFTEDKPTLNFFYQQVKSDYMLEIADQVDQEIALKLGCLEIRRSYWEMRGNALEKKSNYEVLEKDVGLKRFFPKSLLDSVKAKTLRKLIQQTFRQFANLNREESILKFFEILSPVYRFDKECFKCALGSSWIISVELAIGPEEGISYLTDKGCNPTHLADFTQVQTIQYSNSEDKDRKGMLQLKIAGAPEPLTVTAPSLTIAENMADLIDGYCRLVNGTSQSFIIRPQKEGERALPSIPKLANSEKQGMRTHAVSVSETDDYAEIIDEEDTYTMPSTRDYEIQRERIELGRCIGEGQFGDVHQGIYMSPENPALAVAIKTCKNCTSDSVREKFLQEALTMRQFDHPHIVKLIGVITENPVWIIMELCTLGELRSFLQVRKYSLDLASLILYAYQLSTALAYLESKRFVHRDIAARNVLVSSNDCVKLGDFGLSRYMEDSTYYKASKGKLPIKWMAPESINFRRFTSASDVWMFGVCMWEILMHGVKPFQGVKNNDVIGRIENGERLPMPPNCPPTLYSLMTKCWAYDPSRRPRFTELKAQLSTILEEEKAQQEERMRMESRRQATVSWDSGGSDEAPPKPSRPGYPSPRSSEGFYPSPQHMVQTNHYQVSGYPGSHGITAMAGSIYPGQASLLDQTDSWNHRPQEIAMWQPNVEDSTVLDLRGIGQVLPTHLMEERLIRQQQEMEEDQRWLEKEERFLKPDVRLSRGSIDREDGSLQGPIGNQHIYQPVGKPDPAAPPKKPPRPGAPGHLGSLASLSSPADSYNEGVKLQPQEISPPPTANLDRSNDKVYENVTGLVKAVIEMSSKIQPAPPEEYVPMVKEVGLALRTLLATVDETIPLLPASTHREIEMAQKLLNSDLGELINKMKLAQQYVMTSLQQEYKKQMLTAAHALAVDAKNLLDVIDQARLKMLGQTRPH
Sequence of Rho-associated protein kinase 1 (Q13464 whole entry): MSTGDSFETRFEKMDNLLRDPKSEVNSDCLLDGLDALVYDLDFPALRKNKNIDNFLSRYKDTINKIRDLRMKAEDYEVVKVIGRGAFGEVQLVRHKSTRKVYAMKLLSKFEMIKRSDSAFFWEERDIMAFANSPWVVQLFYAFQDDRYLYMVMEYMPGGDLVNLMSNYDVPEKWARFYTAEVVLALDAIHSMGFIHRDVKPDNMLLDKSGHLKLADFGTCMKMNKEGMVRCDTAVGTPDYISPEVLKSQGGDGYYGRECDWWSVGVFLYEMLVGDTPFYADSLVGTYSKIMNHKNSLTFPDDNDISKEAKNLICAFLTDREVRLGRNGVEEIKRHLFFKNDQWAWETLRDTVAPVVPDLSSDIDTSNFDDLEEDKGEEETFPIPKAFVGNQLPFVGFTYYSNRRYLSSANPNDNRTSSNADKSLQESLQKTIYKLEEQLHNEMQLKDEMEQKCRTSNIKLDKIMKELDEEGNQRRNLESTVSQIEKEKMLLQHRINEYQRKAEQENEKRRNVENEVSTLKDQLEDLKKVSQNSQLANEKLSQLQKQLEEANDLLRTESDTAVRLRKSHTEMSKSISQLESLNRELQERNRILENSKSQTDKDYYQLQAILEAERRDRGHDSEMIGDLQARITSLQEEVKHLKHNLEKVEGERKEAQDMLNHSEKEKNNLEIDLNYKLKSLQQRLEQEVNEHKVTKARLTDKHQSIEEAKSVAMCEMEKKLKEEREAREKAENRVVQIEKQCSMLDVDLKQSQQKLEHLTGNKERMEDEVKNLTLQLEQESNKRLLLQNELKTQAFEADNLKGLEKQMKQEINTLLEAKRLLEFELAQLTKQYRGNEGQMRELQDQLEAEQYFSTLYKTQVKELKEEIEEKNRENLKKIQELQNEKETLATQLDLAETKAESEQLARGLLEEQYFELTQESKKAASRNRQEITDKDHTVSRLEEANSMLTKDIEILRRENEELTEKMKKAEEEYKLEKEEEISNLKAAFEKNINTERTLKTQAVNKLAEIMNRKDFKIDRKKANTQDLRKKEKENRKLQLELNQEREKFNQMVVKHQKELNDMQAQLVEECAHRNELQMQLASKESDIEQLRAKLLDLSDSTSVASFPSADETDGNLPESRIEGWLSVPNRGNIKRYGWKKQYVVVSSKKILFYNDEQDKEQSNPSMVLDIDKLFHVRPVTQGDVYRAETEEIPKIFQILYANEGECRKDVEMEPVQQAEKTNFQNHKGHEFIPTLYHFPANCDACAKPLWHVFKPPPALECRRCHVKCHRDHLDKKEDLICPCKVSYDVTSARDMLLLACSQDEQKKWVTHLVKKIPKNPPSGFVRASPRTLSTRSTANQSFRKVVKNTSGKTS
Sequence of Cyclin-dependent kinase 5 (Q00535 whole entry): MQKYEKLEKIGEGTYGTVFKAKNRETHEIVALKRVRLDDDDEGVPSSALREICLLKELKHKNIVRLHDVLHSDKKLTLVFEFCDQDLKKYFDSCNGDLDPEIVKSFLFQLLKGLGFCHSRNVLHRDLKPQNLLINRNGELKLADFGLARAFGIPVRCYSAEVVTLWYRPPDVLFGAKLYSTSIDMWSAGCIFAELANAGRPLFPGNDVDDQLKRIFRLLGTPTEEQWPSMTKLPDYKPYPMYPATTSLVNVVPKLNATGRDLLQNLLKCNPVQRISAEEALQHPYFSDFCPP

SMILES: CC(C)CC(C(=O)N1CCc2ccccc2C1)N1C(=O)c2ccccc2C1=O (stereo not drawn)
EC50 (cells [1]): > 29.9 µM (inactive) | EC50 [2]: 2.96 µM (active) | EC50 [3]: 22.4 µM (active) | IC50 (cells [4]): > 29.9 µM (inactive) | IC50 [5]: 5.55 µM (active)

Ki [6]: 10 µM (active) | Ki [7]: 79.4 µM (active) | Ki [8]: 100 µM (active) | Ki [9]: 2 µM (active) | Ki [10]: 63.1 µM (active) | Ki [11]: 39.8 µM (active) | Ki [12]: 63.1 µM (active) | Ki (Aurora kinase A): 39.8 µM (active) | Ki [13]: 12.6 µM (active) | Ki [14]: 15.8 µM (active) | Ki (Activin receptor type-1): 39.8 µM (active) | Ki [15]: 20 µM (active) | Ki [16]: 25.1 µM (active) | Ki [17]: 5.01 µM (active) | Ki [18]: 12.6 µM (active) | Ki [19]: 10 µM (active) | Ki (Activated CDC42 kinase 1): 25.1 µM (active) | Ki (Focal adhesion kinase 1): 79.4 µM (active) | Ki [20]: 50.1 µM (active) | Ki [21]: 31.6 µM (active) | Ki [22]: 25.1 µM (active) | Ki [23]: 39.8 µM (active) | Ki [24]: 15.8 µM (active) | Ki [26]: 50.1 µM (active) | Ki [27]: 50.1 µM (active) | Ki [28]: 25.1 µM (active) | Ki (Aurora kinase B): 15.8 µM (active) | Ki [29]: > 63.1 µM (inactive) | Ki [30]: 50.1 µM (active) | Ki [31]: 31.6 µM (active) | Ki [32]: 79.4 µM (active) | Ki [33]: 79.4 µM (active) | Ki [34]: 63.1 µM (active) | Ki [35]: 63.1 µM (active) | Ki [36]: 31.6 µM (active) | Ki [37]: 1.58 µM (active) | Ki [38]: 12.6 µM (active) | Ki [39]: 10 µM (active) | Ki [40]: 31.6 µM (active) | Ki [41]: 5.01 µM (active) | Ki [42]: 39.8 µM (active) | Ki [43]: 15.8 µM (active) | Ki [44]: 63.1 µM (active) | Ki [45]: 63.1 µM (active) | Ki [46]: 50.1 µM (active)
SMILES: Fc1cccc(CNc2ncnc3nc[nH]c23)c1
Ki [25]: 31.6 µM (active)

EC50 [47]: > 50 µM (inactive) | EC50 [48]: > 50 µM (inactive)
SMILES: CCCc1cc(C(=O)N(C2CCCCC2)C2CCCC2)no1
